The test system of this data set is CCRIS mutagenicity, Ames/micronucleus/aberration tests. The data set is described as follows: CCRIS mutagenicity studies.
[1] abbreviates: Test System: AMES SALMONELLA TYPHIMURIUM, Strain/Indicator: TA98, Metabolic Activation: NONE, Method: STANDARD PLATE.
[2] abbreviates: Test System: AMES SALMONELLA TYPHIMURIUM, Strain/Indicator: TA100, Metabolic Activation: NONE, Method: STANDARD PLATE.
Setting [3] is: Test System: AMES SALMONELLA TYPHIMURIUM, Strain/Indicator: TA98, Metabolic Activation: NONE, Method: PREINCUBATION
Setting [4] is: Test System: AMES SALMONELLA TYPHIMURIUM, Strain/Indicator: TA100, Metabolic Activation: NONE, Method: PREINCUBATION
[5] abbreviates: Test System: AMES SALMONELLA TYPHIMURIUM, Strain/Indicator: TA98, Metabolic Activation: RAT, LIVER, S-9, AROCLOR 1254 (10%), Method: PREINCUBATION
[6] abbreviates: Test System: AMES SALMONELLA TYPHIMURIUM, Strain/Indicator: TA98, Metabolic Activation: RAT, LIVER, S-9, AROCLOR 1254, Method: STANDARD PLATE.
[7] abbreviates: Test System: AMES SALMONELLA TYPHIMURIUM, Strain/Indicator: TA100, Metabolic Activation: RAT, LIVER, S-9, AROCLOR 1254 (10%), Method: PREINCUBATION

Activity calls are given as the source filed them. How the calls were made is not given here.

Take `C[C@@H]1C[C@@]2(C)[C@@H](CC[C@@H]3[C@@H]2CC[C@]2(C)[C@@H](O)CC[C@@H]32)CC1=O`: the mutagenic call runs as follows: under setting [1], “inactive; negative”; (Test System: AMES SALMONELLA TYPHIMURIUM, Strain/Indicator: TA98, Metabolic Activation: S-9, Method: STANDARD PLATE) “inactive; negative”; under setting [2], “inactive; negative”; (Test System: AMES SALMONELLA TYPHIMURIUM, Strain/Indicator: TA100, Metabolic Activation: S-9, Method: STANDARD PLATE) “inactive; negative”; (Test System: E. COLI, Strain/Indicator: WP2 (HCR), Metabolic Activation: NONE, Method: STANDARD PLATE) “inactive; negative”; (Test System: E. COLI, Strain/Indicator: WP2 (HCR), Metabolic Activation: S-9, Method: STANDARD PLATE) “inactive; negative”.
Take `O=Cc1c([N+](=O)[O-])cccc1[N+](=O)[O-]`: the mutagenic call was “active; positive” under setting [3]; “inactive; negative” (Test System: AMES SALMONELLA TYPHIMURIUM, Strain/Indicator: TA98, Metabolic Activation: RAT, LIVER, S-9, PHENOBARBITAL AND 5,6-BENZOFLAVONE, Method: PREINCUBATION); “active; positive” (Test System: AMES SALMONELLA TYPHIMURIUM, Strain/Indicator: TA100(1,8-DNP6), Metabolic Activation: NONE, Method: SUSPENSION/PLATE); “active; positive” (Test System: AMES SALMONELLA TYPHIMURIUM, Strain/Indicator: TA100(NR), Metabolic Activation: NONE, Method: SUSPENSION/PLATE); “active; positive” under setting [4]; “active; positive” (Test System: AMES SALMONELLA TYPHIMURIUM, Strain/Indicator: TA100, Metabolic Activation: NONE, Method: SUSPENSION/PLATE). Further, under “Test System: AMES SALMONELLA TYPHIMURIUM, Strain/Indicator: TA100, Metabolic Activation: RAT, LIVER, S-9, PHENOBARBITAL AND 5,6-BENZOFLAVONE, Method: PREINCUBATION”, the mutagenic call is “active; positive”.
As for `COc1ccc2c(c1OC)C(=O)O[C@@H]2[C@H]1c2c(cc3c(c2OC)OCO3)CCN1C`, the mutagenic call (End Point: CHROMOSOMAL ABERRATIONS, Test System: HUMAN LYMPHOCYTES, Metabolic Activation: NONE, Method: FISH) was “active; positive (ploidy changes)”; the mutagenic call (End Point: In vivo micronucleus, Test System: Micronucleated, binucleated and multinucleated hepatocytes, Species: Mouse, Strain/Sex: ddY/Male, Route: Intravenous) is “active; positive for micronucleated, binucleated and multinucleated cells when agent adm”; the mutagenic call (End Point: MICRONUCLEUS, Test System: HUMAN LYMPHOCYTES, Metabolic Activation: NONE) is “active; positive (aneuploidy and polyploidy)”.
As to `Cc1cc2ccccc2c2ccc3c(c12)[C@H](O)[C@@H](O)[C@H]1O[C@@H]31`, under setting [4], the mutagenic call is “inactive; negative”.
Turning to `CN(CCO)CCO`, the mutagenic call runs as follows: (Test System: AMES SALMONELLA TYPHIMURIUM, Strain/Indicator: TA98, Metabolic Activation: HAMSTER, LIVER, S-9, AROCLOR 1254 (10%), Method: PREINCUBATION) “inactive; negative”; under setting [3], “inactive; negative”; under setting [1], “inactive; negative”; under setting [5], “inactive; negative”; under setting [6], “inactive; negative”; (Test System: AMES SALMONELLA TYPHIMURIUM, Strain/Indicator: TA100, Metabolic Activation: HAMSTER, LIVER, S-9, AROCLOR 1254 (10%), Method: PREINCUBATION) “inactive; negative”. The mutagenic call was “inactive; negative” under setting [4]; “inactive; negative” under setting [2]; “inactive; negative” under setting [7]; “inactive; negative” (Test System: AMES SALMONELLA TYPHIMURIUM, Strain/Indicator: TA100, Metabolic Activation: RAT, LIVER, S-9, AROCLOR 1254, Method: STANDARD PLATE); “inactive; negative” (Test System: AMES SALMONELLA TYPHIMURIUM, Strain/Indicator: TA1535, Metabolic Activation: HAMSTER, LIVER, S-9, AROCLOR 1254 (10%), Method: PREINCUBATION); “inactive; negative” (Test System: AMES SALMONELLA TYPHIMURIUM, Strain/Indicator: TA1535, Metabolic Activation: NONE, Method: PREINCUBATION). The mutagenic call reads like this: (Test System: AMES SALMONELLA TYPHIMURIUM, Strain/Indicator: TA1535, Metabolic Activation: NONE, Method: STANDARD PLATE) “inactive; negative”; (Test System: AMES SALMONELLA TYPHIMURIUM, Strain/Indicator: TA1535, Metabolic Activation: RAT, LIVER, S-9, AROCLOR 1254 (10%), Method: PREINCUBATION) “inactive; negative”; (Test System: AMES SALMONELLA TYPHIMURIUM, Strain/Indicator: TA1535, Metabolic Activation: RAT, LIVER, S-9, AROCLOR 1254, Method: STANDARD PLATE) “inactive; negative”; (Test System: AMES SALMONELLA TYPHIMURIUM, Strain/Indicator: TA1537, Metabolic Activation: HAMSTER, LIVER, S-9, AROCLOR 1254 (10%), Method: PREINCUBATION) “inactive; negative”; (Test System: AMES SALMONELLA TYPHIMURIUM, Strain/Indicator: TA1537, Metabolic Activation: NONE, Method: PREINCUBATION) “inactive; negative”; (Test System: AMES SALMONELLA TYPHIMURIUM, Strain/Indicator: TA1537, Metabolic Activation: NONE, Method: STANDARD PLATE) “inactive; negative”. The mutagenic call reads like this: (Test System: AMES SALMONELLA TYPHIMURIUM, Strain/Indicator: TA1537, Metabolic Activation: RAT, LIVER, S-9, AROCLOR 1254 (10%), Method: PREINCUBATION) “inactive; negative”; (Test System: AMES SALMONELLA TYPHIMURIUM, Strain/Indicator: TA1537, Metabolic Activation: RAT, LIVER, S-9, AROCLOR 1254, Method: STANDARD PLATE) “inactive; negative”; (Test System: AMES SALMONELLA TYPHIMURIUM, Strain/Indicator: TA1538, Metabolic Activation: NONE, Method: STANDARD PLATE) “inactive; negative”; (Test System: AMES SALMONELLA TYPHIMURIUM, Strain/Indicator: TA1538, Metabolic Activation: RAT, LIVER, S-9, AROCLOR 1254, Method: STANDARD PLATE) “inactive; negative”; (Test System: CHINESE HAMSTER OVARY, Strain/Indicator: CHO-K1-BH4, Metabolic Activation: NONE) “inactive; negative”; (Test System: CHINESE HAMSTER OVARY, Strain/Indicator: CHO-K1-BH4, Metabolic Activation: RAT, LIVER, S-9, AROCLOR 1254) “inactive; negative”.
`CC(=O)N(OC(=O)c1ccccc1)c1ccc2c(c1)Cc1ccccc1-2`: the mutagenic call was “active; positive” under setting [1] and “active; positive” under setting [6].
For the molecule `COC(=O)c1ccc(/C=N/n2nnc3c([nH]c4ccccc43)c2=O)cc1`, the mutagenic call by setting is: (Test System: AMES SALMONELLA TYPHIMURIUM, Strain/Indicator: TA97, Metabolic Activation: NONE, Method: PREINCUBATION) “active; positive”; (Test System: AMES SALMONELLA TYPHIMURIUM, Strain/Indicator: TA97, Metabolic Activation: RAT, LIVER, S-9, AROCLOR 1254 (10%), Method: PREINCUBATION) “active; positive”; under setting [3], “active; positive”; under setting [5], “active; positive”; under setting [4], “inactive; negative”; under setting [7], “active; positive”. For the same molecule, the mutagenic call is, setting by setting: (Test System: AMES SALMONELLA TYPHIMURIUM, Strain/Indicator: TA102, Metabolic Activation: NONE, Method: PREINCUBATION) “inactive; negative”; (Test System: AMES SALMONELLA TYPHIMURIUM, Strain/Indicator: TA102, Metabolic Activation: RAT, LIVER, S-9, AROCLOR 1254 (10%), Method: PREINCUBATION) “active; positive”.
With `Cc1nc2ccc(N(C)C)c(C)c2nc1C`, the mutagenic call is “inactive; negative” under setting [3]; “active; positive” (Test System: AMES SALMONELLA TYPHIMURIUM, Strain/Indicator: TA98, Metabolic Activation: RAT, LIVER, S-9, PCB, Method: PREINCUBATION); “inactive; negative” under setting [4]; “active; positive” (Test System: AMES SALMONELLA TYPHIMURIUM, Strain/Indicator: TA100, Metabolic Activation: RAT, LIVER, S-9, PCB, Method: PREINCUBATION).

Values taken from PubChem BioAssay AID1259407 (Chemical Carcinogenesis Research Information System (CCRIS), 2018).
